In patent US8765779B2, “Tricyclic derivatives and their pharmaceutical use and compositions” (Cephalon, Inc., priority 2009, dated 2014) one finds Ki data, which are given here for 52 molecules.

For the assay, the target named is T1, human 5-HT6 receptor (Homo sapiens, UniProt P50406).
T1 construct: host or cells: CHO-K1 cells, stably transfected; membranes prepared in house
As to the kind of experiment: Human 5-HT6 Receptor Binding Assay ([3H]LSD displacement, scintillation beads). The following applies: membranes of CHO-K1 cells with recombinant human 5-HT6, 4 nM [3H]LSD; Table 1, class symbols; read-out: h5-HT6 (Ki). The procedure:
Human 5-HT6 Receptor Binding Assay
Membranes were prepared from CHO—K1 cells stably transfected with the human 5-HT6 receptor (Euroscreen; ES-316-C). The cells were grown in Gibco Advanced DMEM-F12 (Cat#12634010) containing 2% dialyzed FBS (Hyclone Cat#SH30079.03). The cells were harvested in phosphate buffered saline (PBS) containing 0.1 mM EDTA and pelleted by centrifugation (1000×g), the supernatant was discarded and the pellets were stored at −80° C. prior to membrane preparation. Membranes were prepared as previously described (J Bio Chem. 1992, 267 (14) 9844-51). Briefly, frozen cell pellet was resuspended in a lysis buffer containing 5 mM Tris-HCl (pH 7.5), 5 mM EDTA and 1 complete EDTA-free protease inhibitor tablet (Roche Applied Science, Indianapolis, Ind.) per 50 mL buffer, and homogenized with a tissue homogenizer. The cell lysate was then centrifuged at 40,000×g for 30 min at 4° C. to collect the membranes. The membrane pellets were washed in membrane buffer (50 mM Tris-HCl (pH 7.5), 0.6 mM EDTA, 5 mM MgCl2, 1 complete EDTA-free protease inhibitor tablet per 50 mL buffer) using a tissue homogenizer. The membranes were centrifuged at 40,000×g for 30 min at 4° C. and the pellets were resuspended in membrane buffer containing 250 mM sucrose, and protein concentration was determined using the Coomassie Plus kit (Pierce Biotechnology, Rockford, Ill.).
Membranes prepared from cells expressing recombinant human 5-HT6 receptor (h5-HT6) were resuspended in assay buffer containing 50 mM Tris HCl, (pH7.4), 4 mM CaCl2, 10 μg/mL saponin, and 0.1% (w/v) ascorbic acid. Membranes were preincubated using 1.75 μg membrane protein and 0.25 mg FlashBlue scintillation beads (PerkinElmer catalogue #FB001) per well at 4° for 30 min. […] Test compounds or assay controls for total and non-specific binding were diluted in DMSO as 100× solutions and serially diluted by half log concentrations on a Perkin Elmer JANUS Automated Workstation. Serotonin (10 μM final concentration) was used to determine non-specific binding in the assay. Plates were read using the Microbeta Trilux 1450 LSC and luminescence counter. Data were analyzed by nonlinear […] using the dose-response equation (variable slope) to calculate IC50 in XLfit4 (ID Business Solutions Inc.): y=(Bottom+((Top−Bottom)/(1+((IC50/x)^Hill slope))))
Ki value was then calculated according to the Cheng-Prusoff method using the equation below (Cheng and Prusoff, 1973): Ki,app=IC50/(1+[radioligand]/Kd))

Counter-ions that a name gives are not always drawn.

T1 sequence (P50406 whole entry): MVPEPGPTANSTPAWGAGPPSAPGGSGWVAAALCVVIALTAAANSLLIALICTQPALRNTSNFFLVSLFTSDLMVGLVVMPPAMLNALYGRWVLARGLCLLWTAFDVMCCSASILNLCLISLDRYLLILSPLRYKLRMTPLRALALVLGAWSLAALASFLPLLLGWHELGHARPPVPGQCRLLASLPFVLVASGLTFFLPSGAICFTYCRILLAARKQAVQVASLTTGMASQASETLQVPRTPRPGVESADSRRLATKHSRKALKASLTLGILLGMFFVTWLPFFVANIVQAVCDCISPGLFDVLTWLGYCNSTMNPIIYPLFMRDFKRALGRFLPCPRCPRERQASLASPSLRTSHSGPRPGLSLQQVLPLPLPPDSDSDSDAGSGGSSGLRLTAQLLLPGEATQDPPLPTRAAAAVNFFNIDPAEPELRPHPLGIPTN

`O=S(=O)(Cc1cccc(C(F)(F)F)c1)Oc1ccc2c(c1)C1CCNCC1O2` (stereo not shown) [Example 750]: the Ki (as a rule, a measure of affinity in units of concentration, obtained from inhibition or displacement) was more than 1000 nM. The value for `O=S(=O)(c1ccc(F)cc1)c1ccc2c3c(oc2c1)CNCC3` [Example 213] was less than 500 nM; that for `O=S(=O)(c1cccnc1)c1ccc2c(c1)OC1CNCCC21` (stereo not shown) [Example 393] was more than 1000 nM. The value for `CC(C)Oc1ncccc1S(=O)(=O)c1ccc2c3c(oc2c1)CNCC3` [Example 439] was less than 500 nM; that for `CC(C)c1ccc(S(=O)(=O)Oc2ccc3c(c2)C2(C)CCNCC2O3)cc1` (stereo not shown) [Example 766] was 500 to 1000 nM; that for `CCCCC1NCCc2c1oc1cc(S(=O)(=O)c3cccc(F)c3)ccc21` (stereo not shown) [Example 506] was less than 500 nM. Under `CC(C)Oc1cccc(S(=O)(=O)c2ccc3c4c(oc3c2)C2(CCOCC2)NCC4)c1` [Example 44, 7-{[3-(propan-2-yloxy)phenyl]sulfonyl}-2′,3,3′,4,5′,6′-hexahydro-2H-spiro[1-benzofuro[2,3-c]pyridine-1,4′-pyran]] stands less than 500 nM.

In the case of `CC(=O)N1CCC2c3cc(NS(=O)(=O)c4cc(C)ccc4C)ccc3OC2C1` (stereo not shown) [Example 815], the inhibition constant Ki was more than 1000 nM. Regarding `Cc1ccc(S(=O)(=O)c2ccc3c(c2)C2CCNCC2O3)cc1` (stereo not shown) [Example 174], the Ki is more than 1000 nM. The value for `O=S(=O)(c1ccc(F)cc1)c1ccc2oc3c(c2c1)CCNC3` [Example 264] was less than 500 nM; that for `O=S(=O)(c1ccc2c(c1)OC1CNCCC21)c1cc(F)cc(F)c1F` (stereo not shown) [Example 400] was less than 500 nM.

Turning to `[O-][S+](c1ccc2c(c1)OC1CNCCC21)c1c(F)c(F)cc(F)c1F` (stereo not shown) [Example 144], the Ki was more than 1000 nM. Under `O=S(=O)(Oc1ccc2c(c1)OC1CNCCC21)c1ccc(-c2cnco2)cc1` (stereo not shown) [Example 672] stands less than 500 nM; under `Cc1ccc(S(=O)(=O)Oc2ccc3c(c2)C2CCNCC2O3)cc1C` (stereo not shown) [Example 706], less than 500 nM. Under `O=S1(=O)CCC2(CC1)NCCc1c2oc2cc(S(=O)(=O)c3cccc(F)c3)ccc12` [Example 38, 7-[(3-fluorophenyl)sulfonyl]-2′,3,3′,4,5′,6′-hexahydro-2H-spiro[1-benzofuro[2,3-c]pyridine-1,4′-thiopyran] 1′,1′-dioxide] stands less than 500 nM; under `COc1ccccc1S(=O)(=O)c1ccc2c(c1)OC1CNCCC21C` (racemic) [Example 3, 7-[(2-methoxyphenyl)sulfonyl]-4a-methyl-1,2,3,4,4a,9a-hexahydro[1]benzofuro[2,3-c]pyridine], less than 500 nM; under `Cc1c(OCC2CCOCC2)cccc1S(=O)(=O)c1ccc2c(c1)OC1CNCCC21` (stereo not shown) [Example 582], less than 500 nM.

`O=S(=O)(Oc1ccc2c(c1)C1CCNCC1O2)c1ccc(Oc2ccccc2)nc1` (stereo not shown) [Example 746]: the Ki is more than 1000 nM. The value for `CC1NCCc2c1oc1cc(S(=O)(=O)c3ccccc3)ccc21` (stereo not shown) [Example 235] was less than 500 nM. Under `O=S(=O)(c1ccc(Cl)c(Cl)c1)c1ccc2c3c(oc2c1)CNCC3` [Example 197, 7-[(3,4-dichlorophenyl)sulfonyl]-1,2,3,4-tetrahydro[1]benzofuro[2,3-c]pyridine] stands less than 500 nM.

Turning to `COc1ccc(S(=O)(=O)c2ccc3oc4c(c3c2)CCNC4)cc1OC` [Example 242], the Ki is more than 1000 nM. Under `O=S(=O)(c1cccc(F)c1)c1ccc2c3c(oc2c1)C(CCBr)NCC3` (stereo not shown) [Example 497] stands less than 500 nM; under `O=S(=O)(c1ccc2c(c1)C1CCNCC1O2)N1CCC2CCCCC2C1` (stereo not shown) [Example 860], more than 1000 nM; under `O=S(=O)(c1ccc(Cl)cc1)c1ccc2c3c(oc2c1)CNCC3` [Example 203], less than 500 nM.

On to `CC12CCNCC1Oc1ccc(OS(=O)(=O)Cc3ccccc3)cc12` (stereo not shown) [Example 758, 4a-methyl-1,2,3,4,4a,9a-hexahydro[1]benzofuro[2,3-c]pyridin-6-yl phenylmethanesulfonate], for which the inhibition constant (Ki) was less than 500 nM. The value for `Cc1cc(S(=O)(=O)c2ccc3c(c2)OC2CNCCC32)ccc1F` (stereo not shown) [Example 137] was less than 500 nM. The value for `CC(C)C1NCCc2c1oc1cc(S(=O)(=O)c3cccc(F)c3)ccc21` (stereo not shown) [Example 495] was less than 500 nM. With `O=S(=O)(Oc1ccc2c(c1)OC1CNCCC21)c1c(Cl)nc2sccn12` (stereo not shown) [Example 638], the inhibition constant (Ki) is less than 500 nM.

As for `O=S(=O)(Oc1ccc2c(c1)OC1CNCCC21)c1cc(Cl)cc(Cl)c1` (stereo not shown) [Example 677], the Ki was less than 500 nM.

Turning to `O=S(=O)(Oc1ccc2c(c1)OC1CNCCC21)c1csc(C(F)(F)F)c1-c1ccccc1` (stereo not shown) [Example 686], the Ki is less than 500 nM. The value for `CC(C)Oc1cccc(S(=O)(=O)c2ccc3c4c(oc3c2)C2(CCOC2)NCC4)c1` (single isomer, unassigned) [Example 31, 7-{[3-(propan-2-yloxy)phenyl]sulfonyl}-3,4,4′,5′-tetrahydro-2H-spiro[1-benzofuro[2,3-c]pyridine-1,3′-furan]] was less than 500 nM; that for `O=S(=O)(c1cccc(OC(F)(F)F)c1)c1ccc2c3c(oc2c1)C1(CCOCC1)NCC3` [Example 300, 7-{[3-(trifluoromethoxy)phenyl]sulfo-nyl}-2′,3,3′,4,5′,6′-hexahydro-2H-spiro[1-benzofuro[2,3-c]pyridine-1,4′-pyran]] was less than 500 nM; that for `CC12CCNCC1Oc1ccc(OS(=O)(=O)Cc3ccc(F)cc3)cc12` (stereo not shown) [Example 790] was more than 1000 nM. The value for `O=S(=O)(c1ccc2c(c1)OCCO2)c1ccc2c3c(oc2c1)CNCC3` [Example 200] was less than 500 nM; that for `O=S(=O)(Oc1ccc2c(c1)C1CCNCC1O2)c1ccc(-c2cnco2)cc1` (stereo not shown) [Example 734] was more than 1000 nM. Under `CC12CCNCC1Oc1ccc(OS(=O)(=O)c3cccc(Cl)c3)cc12` (stereo not shown) [Example 762] stands more than 1000 nM. In the case of `CC1(C)CNCc2oc3cc(S(=O)(=O)c4ccccc4)ccc3c21` [Example 286], the Ki was less than 500 nM. Under `O=S(=O)(c1cccc(F)c1)c1ccc2c3c(oc2c1)C1CCN1CC3` (stereo not shown) [Example 616, 8-[(3-Fluorophenyl)sulfonyl]-1,4,5,10b-tetrahydro-2H-azeto[1,2-a][1]benzofuro[2,3-c]pyridine] stands less than 500 nM; under `O=S(=O)(Cc1ccccc1)Oc1ccc2c(c1)OC1CNCCC21` (stereo not shown) [Example 637], more than 1000 nM. The value for `CC12CCNCC1Oc1ccc(OS(=O)(=O)c3ccc(-c4cnco4)cc3)cc12` (stereo not shown) [Example 777] was more than 1000 nM; that for `O=S(=O)(c1ccc2c(c1)OC1CNCCC21)c1cccnc1C(F)(F)F` (stereo not shown) [Example 410] was 500 to 1000 nM. The value for `O=[N+]([O-])c1ccc(S(=O)(=O)c2cccc3c2OC2CNCCC32)cc1` (stereo not shown) [Example 190] was more than 1000 nM. In the case of `CC12CCNCC1Oc1cc(S(=O)(=O)c3cncc(Cl)c3)ccc12` (stereo not shown) [Example 430], the Ki is less than 500 nM. Under `CN(C)C(=O)c1cccc(S(=O)(=O)c2ccc3c4c(oc3c2)CNCC4)c1` [Example 474, N,N-Dimethyl-3-(1,2,3,4-tetrahydro[1]benzofuro[2,3-c]pyridin-7-ylsulfonyl)benzamide hydrochloride] stands more than 1000 nM; under `O=S(=O)(c1ccc2ccccc2c1)c1cccc2c1OC1CNCCC21` (stereo not shown) [Example 189], less than 500 nM; under `CC(=O)N1CCc2c(oc3cc(S(=O)(=O)c4ccccc4)ccc23)C1` [Example 614, 1-[7-(Phenylsulfonyl)-3,4-dihydro[1]benzofuro[2,3-c]pyridin-2(1H)-yl]ethanone trifluoroacetate], less than 500 nM. Under `CC(C)CN1CCc2c(oc3cc(S(=O)(=O)c4ccccc4)ccc23)C1` [Example 593] stands less than 500 nM.

As for `Cc1cccc(S(=O)(=O)Oc2ccc3c(c2)C2CCNCC2O3)c1` (stereo not shown) [Example 699], the Ki was less than 500 nM. The value for `O=S(=O)(c1cncc(Cl)c1)c1ccc2c(c1)OC1CNCCC21` (stereo not shown) [Example 392] was less than 500 nM; that for `COc1ccc(F)cc1S(=O)(=O)c1ccc2c(c1)OC1CNCCC21` (stereo not shown) [Example 132] was more than 1000 nM. Take `CC12CCNCC1Oc1ccc(OS(=O)(=O)Cc3ccccc3F)cc12` (stereo not shown) [Example 786]: the Ki was less than 500 nM. Under `CC(C)N1CCC2c3ccc(OS(=O)(=O)c4ccc(Cl)cc4)cc3OC2C1` (stereo not shown) [Example 798, 2-(Propan-2-yl)-1,2,3,4,4a,9a-hexahydro[1]benzofuro[2,3-c]pyridin-7-yl-4-chlorobenzenesulfonate] stands more than 1000 nM.
